Experimental data published in ChEMBL document CHEMBL1641582, “Synthesis and in vitro evaluation of 2-amino-4-N-piperazinyl-6-(3,4-dimethoxyphenyl)-pteridines as dual immunosuppressive and anti-inflammatory agents” (Bioorg Med Chem Lett, 2011).

What was measured:
[1] = Immunosuppressive activity in human T cells assessed as inhibition of LFA1-mediated cell proliferation by mixed lymphocyte reaction assay; assay type: functional, cell-based
[2] = test system: PBMC; assay: Antiinflammatory activity in human PBMC assessed as inhibition of LPS-induced TNFalpha production; assay type: functional, cell-based

Row | SMILES | IC50 [1] | IC50 [2]
1 | CCOc1nc(N)nc2ncc(-c3ccc(C(F)(F)F)cc3)nc12 | 10 µM | > 10 µM
2 | CCOc1nc(N)nc2ncc(-c3ccc(F)c(F)c3)nc12 | > 10 µM | > 10 µM
3 | CCOc1nc(N)nc2ncc(-c3cccc(OC)c3)nc12 | 8.3 µM | 10 µM
4 | CCOc1nc(N)nc2ncc(-c3ccc(C#N)cc3)nc12 | > 10 µM | > 10 µM
5 | CCOc1nc(N)nc2ncc(-c3ccc(CC)cc3)nc12 | 8.2 µM | 8.5 µM
6 | CCOc1nc(N)nc2ncc(-c3ccc(Cl)c(Cl)c3)nc12 | > 10 µM | > 10 µM
7 | CCOc1nc(N)nc2ncc(-c3ccc(OC)cc3)nc12 | > 10 µM | 4.5 µM
8 | CC(C)Oc1nc(N)nc2ncc(-c3ccc(C(F)(F)F)cc3)nc12 | > 10 µM | 9.1 µM
9 | CC(C)Oc1nc(N)nc2ncc(-c3ccc(F)c(F)c3)nc12 | 10 µM | 6.6 µM
10 | COc1ccc(-c2cnc3nc(N)nc(OC(C)C)c3n2)cc1 | > 10 µM | 6.2 µM
11 | CCOc1ccc(-c2cnc3nc(N)nc(OC(C)C)c3n2)cc1 | 10 µM | 10 µM
12 | Cc1ccc(-c2cnc3nc(N)nc(OC(C)C)c3n2)cc1C | 10 µM | 6.7 µM
13 | COc1ccc(-c2cnc3nc(N)nc(OC(C)C)c3n2)cc1OC | 0.4 µM | 2.3 µM
14 | CC(C)Oc1nc(N)nc2ncc(-c3ccc(C#N)cc3)nc12 | > 10 µM | 6.3 µM
15 | COc1ccc(-c2cnc3nc(N)nc(NCc4ccccc4)c3n2)cc1OC | 13 µM | 6.5 µM
16 | COc1ccc(-c2cnc3nc(N)nc(NCCc4ccccc4)c3n2)cc1OC | 6 µM | 7.1 µM
17 | COc1ccc(-c2cnc3nc(N)nc(NC4CCCC4)c3n2)cc1OC | 0.8 µM | 0.6 µM
18 | COc1ccc(-c2cnc3nc(N)nc(NC(C)C)c3n2)cc1OC | 0.6 µM | 0.3 µM
19 | COc1ccc(-c2cnc3nc(N)nc(N4CCC(C)CC4)c3n2)cc1OC | 0.8 µM | 0.3 µM
20 | COc1ccc(-c2cnc3nc(N)nc(NCc4cccs4)c3n2)cc1OC | 4.1 µM | 7.2 µM
21 | COc1ccc(-c2cnc3nc(N)nc(N4CCOCC4)c3n2)cc1OC | 0.1 µM | 0.4 µM

Row | SMILES | IC50 [1] | IC50 [2]
22 | COc1ccc(-c2cnc3nc(N)nc(N4CCSCC4)c3n2)cc1OC | 0.4 µM | 0.5 µM
23 | COc1ccc(-c2cnc3nc(N)nc(N4CCN(c5ccccc5)CC4)c3n2)cc1OC | 0.4 µM | 0.05 µM
24 | COc1ccc(-c2cnc3nc(N)nc(N4CCN(c5ccc(C)cc5)CC4)c3n2)cc1OC | 0.3 µM | 0.01 µM
25 | COc1ccc(-c2cnc3nc(N)nc(N4CCN(c5cc(Cl)cc(Cl)c5)CC4)c3n2)cc1OC | 3.4 µM | 0.5 µM
26 | COc1ccc(-c2cnc3nc(N)nc(N4CCN(c5ccc(F)cc5)CC4)c3n2)cc1OC | 0.1 µM | 0.05 µM
27 | COc1ccc(-c2cnc3nc(N)nc(N4CCN(Cc5ccccc5)CC4)c3n2)cc1OC | – | 0.09 µM
28 | COc1ccc(-c2cnc3nc(N)nc(N4CCN(Cc5c(Cl)cccc5Cl)CC4)c3n2)cc1OC | 7.6 µM | 0.7 µM
29 | COc1ccc(-c2cnc3nc(N)nc(N4CCN(Cc5ccccc5F)CC4)c3n2)cc1OC | 0.7 µM | 0.2 µM
30 | COc1ccc(-c2cnc3nc(N)nc(N4CCN(Cc5ccc(C(C)(C)C)cc5)CC4)c3n2)cc1OC | 4.3 µM | 0.7 µM
31 | COc1ccc(-c2cnc3nc(N)nc(N4CCN(C(=O)c5ccccc5)CC4)c3n2)cc1OC | 0.4 µM | 0.4 µM
32 | COc1ccc(-c2cnc3nc(N)nc(N4CCN(C(=O)CCc5ccccc5)CC4)c3n2)cc1OC | 0.1 µM | 0.01 µM
33 | COc1ccc(-c2cnc3nc(N)nc(N4CCN(C(=O)COc5ccccc5)CC4)c3n2)cc1OC | 0.004 µM | 0.08 µM
34 | COc1ccc(-c2cnc3nc(N)nc(N4CCN(C(=O)COc5ccc(Cl)cc5)CC4)c3n2)cc1OC | 0.0005 µM | 0.077 µM
35 | COc1ccc(-c2cnc3nc(N)nc(N4CCN(C(=O)Nc5ccccc5)CC4)c3n2)cc1OC | 0.0034 µM | 0.09 µM
36 | COc1ccc(-c2cnc3nc(N)nc(N4CCN(C(=O)Nc5ccc(F)cc5)CC4)c3n2)cc1OC | 0.007 µM | 0.51 µM
37 | COc1ccc(-c2cnc3nc(N)nc(N4CCN(C(=O)Nc5ccc(C)cc5)CC4)c3n2)cc1OC | 0.0008 µM | 0.43 µM
38 | COc1ccc(-c2cnc3nc(N)nc(N4CCN(C(=O)Nc5ccc(C#N)cc5)CC4)c3n2)cc1OC | 0.074 µM | 0.63 µM
39 | COc1ccc(-c2cnc3nc(N)nc(N4CCN(C(=O)Nc5cccc(C)c5)CC4)c3n2)cc1OC | 0.007 µM | 0.1 µM
40 | COc1ccc(-c2cnc3nc(N)nc(N4CCN(C(=O)NCc5ccccc5)CC4)c3n2)cc1OC | 0.018 µM | –
41 | COc1ccc(-c2cnc3nc(N)nc(N4CCN(C(=O)NCc5ccc(F)cc5)CC4)c3n2)cc1OC | 0.037 µM | 0.7 µM
